The source of these data is patent US11505581B2, “Antigens and T cell epitopes from cockroach and methods of making and using same” (La Jolla Institute for Allergy and Immunology, priority 2015, dated 2022).

The test system of the assay is PBMC. Put plainly: ELISPOT (IFNγ, IL-5, IL-10, IL-17, IL-21) of PBMC expanded 14 days with Bla g extract, then stimulated with peptides or peptide pools. Also noted: key to Average Magnitude of Response: spot forming cells (SFC) per 10^6 PBMC; Response Rate per Subject: unit not given here. As to conditions: non-redundant epitopes; sensitized donors. The assay is classed as cell-based, human. How it is done: PBMC Isolation and Cell Cultures: PBMC (peripheral blood mononuclear cells) were isolated from 450 mL (one unit) of blood by density gradient centrifugation as described and cryopreserved. For in vitro expansion of PBMC for peptide screening, cells were cultured in RPMI1640 (Omega Scientific)+5% human AB serum (Gemini Bioscience), GlutaMAX (Gibco), and penicillin/streptomycin (Omega Scientific) at 2×10^6 per mL, stimulated with 10 ug/mL Bla g extract (Greer), and incubated at 37° C. in 5% CO2. Every three days, IL-2 and IL-7 (10 U/mL) were added to the cultures. Cells were harvested for peptide screening at day 14.
ELISPOT Assays: Production of IFNγ, IL-5, IL-17, IL-10, and IL-21 (as representative of TH1, TH2, TH17, TR1, and […], respectively) in response to peptide stimulation was measured by ELISPOT as described previously. […] In brief, 1×10^5 cells per well were incubated with peptide, peptide pool, or Bla g extract (10, 5, and 10 ug/ml, respectively) on anti-lymphokine antibody coated ELISPOT plates (Millipore #MSIPS4510) for 22 hours. Subsequently, secondary anti-lymphokine antibodies were added and incubated for 2 hours, washed, and avidin-peroxidase complex added for 1 hour. Plates were washed and spots developed with 3-amino-9-ethylcarbazole (Sigma #A6926) and Vector Blue (Vector #SK-5300) for IFNγ/IL-5 and IL-10/IL-17 dual plates or TMB (Sigma #T0565) for single IL-21. Criteria for peptide pool positivity were at least 100 spot forming cells (SFC) per 10^6 PBMC, p<0.05, and stimulation index≥2. Criteria for peptide positivity were identical except with a threshold of 20 SFCs.
We synthetized overlapping peptide sets of 15 amino acids in length overlapping by 10 residues and covering the entire sequence of known Bla g Allergens, i.e. Bla g 1-7, 9 and 11, referred from hereafter collectively as BLAGA. A total of 809 BLAGA peptides were arranged in pools, encompassing on average 20 peptides.
To assess T cell reactivity, we utilized a strategy applied to the definition of epitopes from various allergen sources^15,16 utilizing in vitro stimulation with allergen extracts. Here, PBMC from each subject were stimulated in vitro with Bla g extract. After 14 days, pools of overlapping 15-mer peptides from the BLAGA were tested for responses, and positive pools deconvoluted to identify the specific epitopes. As readout, we utilized ELISPOT assays specific for IL-5, IFNγ, IL-10, IL-17 and IL-21, chosen as representative of TH2, TH1, TR1, TH17 and TFH reactivity, respectively.
Consider “VLEKLEAGFAKLAAS (listed as Blattella germanica)”, for which the “Average Magnitude of Response” value is 65.5 and the “Response Rate per Subject” value was found to be 14.3.

With “HDDRLGFLTFCPTNL (listed as Blattella germanica)”, the “Average Magnitude of Response” value is 83.1 and the “Response Rate per Subject” value is given as 7.1.

Turning to IDDIIAILPVDDLYA, the “Average Magnitude of Response” value was 6.6 and the “Response Rate per Subject” value is on record as 2.9.

Turning to VFIGKFYTEFDMENN, the “Average Magnitude of Response” value was found to be 4.0 and the “Response Rate per Subject” value was determined as 2.9.

On to DCGVAGFRVDAAKHM, for which the “Average Magnitude of Response” value amounted to 3.9 and the “Response Rate per Subject” value turned out to be 2.9.

On to LRLSEHLDYVKNLTV, for which the “Average Magnitude of Response” value is 3.1 and the “Response Rate per Subject” value came to 1.4.

In the case of KKLQFTYSESLDLDD, the “Average Magnitude of Response” value is recorded as 4.2 and the “Response Rate per Subject” value is given as 2.9.

With IRFSVRRFHPKLGDK, the “Average Magnitude of Response” value is 5.8 and the “Response Rate per Subject” value is reported as 2.9.

QTLFLLLLLLAAVSA: the “Average Magnitude of Response” value was determined as 3.2 and the “Response Rate per Subject” value worked out at 1.4.

On to ARYFLERLSNDLPDV, for which the “Average Magnitude of Response” value is 3.5 and the “Response Rate per Subject” value came out at 2.9.

Turning to KAIEEDLKHFNLKYE, the “Average Magnitude of Response” value is listed as 5.7 and the “Response Rate per Subject” value came out at 2.9.

For EVVKANGGYLAAGKL, the “Average Magnitude of Response” value is 4.6 and the “Response Rate per Subject” value amounted to 5.7.

In the case of THQFNVAGSVTVDKT, the “Average Magnitude of Response” value is 5.6 and the “Response Rate per Subject” value is 2.9.

KFEGNKFTIDYNDKG: the “Average Magnitude of Response” value is reported as 14.2 and the “Response Rate per Subject” value worked out at 4.3.

On to IHENLIVTSPFRPWW, for which the “Average Magnitude of Response” value is given as 9.3 and the “Response Rate per Subject” value stood at 2.9.

“NIACLLHNKYDSTKS (listed as Blattella germanica)”: the “Average Magnitude of Response” value worked out at 61.0 and the “Response Rate per Subject” value is 2.9.

Turning to “DRKMYWQFKMDKIQI (listed as Blattella germanica)”, the “Average Magnitude of Response” value is reported as 78.8 and the “Response Rate per Subject” value is on record as 5.7.

With VLGLPAIKAWVAKRP, the “Average Magnitude of Response” value turned out to be 48.5 and the “Response Rate per Subject” value is recorded as 14.3.

Turning to LGHTVCLSGFMGIDL, the “Average Magnitude of Response” value amounted to 3.2 and the “Response Rate per Subject” value was determined as 2.9.

For the sequence FGSTLLDVIQSGLEN, the “Average Magnitude of Response” value was 26.1 and the “Response Rate per Subject” value came out at 8.6.

As for LDYLNHMAKEDLVAN, the “Average Magnitude of Response” value was found to be 13.0 and the “Response Rate per Subject” value is on record as 10.0.

Take KEFANVVRVVRHTSK: the “Average Magnitude of Response” value worked out at 3.3 and the “Response Rate per Subject” value is recorded as 2.9.

Consider RLFGAEVGWLALHHN, for which the “Average Magnitude of Response” value is reported as 35.5 and the “Response Rate per Subject” value was 1.4.

For the sequence QTHQSVAISRYLGKQ, the “Average Magnitude of Response” value is listed as 4.3 and the “Response Rate per Subject” value is recorded as 4.3.

As for “KTPVLEIDGKQTHQS (listed as Blattella germanica)”, the “Average Magnitude of Response” value turned out to be 57.0 and the “Response Rate per Subject” value is 14.3.

As to QQFISSEMVEPKEAS, the “Average Magnitude of Response” value stood at 6.8 and the “Response Rate per Subject” value was 2.9.

With GEKDFEDYRFQEGDW, the “Average Magnitude of Response” value worked out at 12.0 and the “Response Rate per Subject” value worked out at 8.6.

GHSHFVSDVVLSSDG: the “Average Magnitude of Response” value is listed as 9.6 and the “Response Rate per Subject” value was found to be 2.9.

Regarding WVCEHRWRQIFNMVG, the “Average Magnitude of Response” value is on record as 33.9 and the “Response Rate per Subject” value is recorded as 4.3.

As to GVTPVFYNMVKQGLV, the “Average Magnitude of Response” value was 20.8 and the “Response Rate per Subject” value stood at 1.4.

Consider FRKFSNNFEFSYLLG, for which the “Average Magnitude of Response” value is 3.3 and the “Response Rate per Subject” value stood at 1.4.

As for KTPVLSVNATVVRLQ, the “Average Magnitude of Response” value is on record as 3.2 and the “Response Rate per Subject” value came to 1.4.

For the sequence IVINNAGILNDEKWE, the “Average Magnitude of Response” value came to 10.8 and the “Response Rate per Subject” value is 4.3.

With SSLFQVANQYTGILY, the “Average Magnitude of Response” value is on record as 50.2 and the “Response Rate per Subject” value worked out at 10.0.

Turning to LNAIEFINNIHDLLG, the “Average Magnitude of Response” value is 8.8 and the “Response Rate per Subject” value stood at 2.9.

As to CPTNLGTTVRASVRI, the “Average Magnitude of Response” value is 11.2 and the “Response Rate per Subject” value is given as 4.3.

Turning to RCGRSMQGYPFNPCL, the “Average Magnitude of Response” value is recorded as 20.4 and the “Response Rate per Subject” value was 10.0.

For the sequence “PKSMLLNIFTNNLGR (listed as Blattella germanica)”, the “Average Magnitude of Response” value is recorded as 52.5 and the “Response Rate per Subject” value is given as 7.1.

In the case of IAGPVSEVTALNRQI, the “Average Magnitude of Response” value worked out at 3.3 and the “Response Rate per Subject” value stood at 2.9.

For QKGYMVSSMTDLWEA, the “Average Magnitude of Response” value is recorded as 13.9 and the “Response Rate per Subject” value worked out at 8.6.

Regarding SVNATVVRLQSWQSE, the “Average Magnitude of Response” value is reported as 4.1 and the “Response Rate per Subject” value is given as 2.9.

For LKYFNMGVQKFWAFD, the “Average Magnitude of Response” value is 19.8 and the “Response Rate per Subject” value came to 8.6.

As to NVIYSQNSFLPRATT, the “Average Magnitude of Response” value was 3.8 and the “Response Rate per Subject” value amounted to 1.4.

In the case of CATDTLANEDCFRHE, the “Average Magnitude of Response” value was 3.2 and the “Response Rate per Subject” value was 2.9.

For the sequence KFTIDYNDKGKAFSA, the “Average Magnitude of Response” value worked out at 32.0 and the “Response Rate per Subject” value came out at 11.4.

As to “NDIEKRVPFSHDDRL (listed as Blattella germanica)”, the “Average Magnitude of Response” value is listed as 72.8 and the “Response Rate per Subject” value worked out at 15.7.

With VQKLQKEVDRLEDEL, the “Average Magnitude of Response” value amounted to 3.3 and the “Response Rate per Subject” value is given as 1.4.

In the case of KVIDLLLSLYLDQNE, the “Average Magnitude of Response” value is recorded as 3.6 and the “Response Rate per Subject” value came to 7.1.

On to GASILTYKTSKLYKM, for which the “Average Magnitude of Response” value is 19.3 and the “Response Rate per Subject” value worked out at 7.1.

With RGNNAIKWLVNFGVG, the “Average Magnitude of Response” value is recorded as 15.0 and the “Response Rate per Subject” value is given as 5.7.

For ALNSIQQFISSEMVE, the “Average Magnitude of Response” value was found to be 4.4 and the “Response Rate per Subject” value is 4.3.

As for PAIKAWVAKRPPTDL, the “Average Magnitude of Response” value worked out at 18.7 and the “Response Rate per Subject” value was 10.0.

In the case of NLEIDMIVDTISDFR, the “Average Magnitude of Response” value is given as 19.1 and the “Response Rate per Subject” value stood at 2.9.

For KCHLTNIACLLHNKY, the “Average Magnitude of Response” value was found to be 22.6 and the “Response Rate per Subject” value is reported as 5.7.

Take KAHSMRNSASMDLSS: the “Average Magnitude of Response” value came out at 16.4 and the “Response Rate per Subject” value turned out to be 4.3.

On to NAIEFLNNIHDLLGI, for which the “Average Magnitude of Response” value came out at 3.0 and the “Response Rate per Subject” value is recorded as 1.4.

For VNQHKKAIEEDLKHF, the “Average Magnitude of Response” value stood at 4.0 and the “Response Rate per Subject” value turned out to be 2.9.

As for NASAVIQEFLKTYKK, the “Average Magnitude of Response” value came out at 5.0 and the “Response Rate per Subject” value was found to be 2.9.

As for LVFLRNAKIELKPNQ, the “Average Magnitude of Response” value turned out to be 4.0 and the “Response Rate per Subject” value was found to be 2.9.

IRHAILAAGDLYSRR: the “Average Magnitude of Response” value amounted to 5.5 and the “Response Rate per Subject” value is reported as 1.4.

Turning to KVFLKNYLVGNAQFK, the “Average Magnitude of Response” value came to 6.4 and the “Response Rate per Subject” value is 1.4.

FRPWWERYQLVSYNL: the “Average Magnitude of Response” value is listed as 10.8 and the “Response Rate per Subject” value came out at 4.3.

For the sequence EAGFAKLAASDSKSL, the “Average Magnitude of Response” value worked out at 16.0 and the “Response Rate per Subject” value is 7.1.

Turning to KIGEYKNMIAEGIID, the “Average Magnitude of Response” value amounted to 6.2 and the “Response Rate per Subject” value was determined as 1.4.

Turning to “VAISRYLGKQFGLSG (listed as Blattella germanica)”, the “Average Magnitude of Response” value stood at 94.9 and the “Response Rate per Subject” value came out at 8.6.
